Assay results taken from ChEMBL document CHEMBL1828542, “Synthesis and biological evaluation of substituted 4-arylthiazol-2-amino derivatives as potent growth inhibitors of replicating Mycobacterium tuberculosis H₃₇Rv” (Bioorg Med Chem Lett, 2011).
Values after ≈ are worked out from the molar mass of the structure shown.

How the values were obtained:
[1] = tested on: Mycobacterium tuberculosis; assay: Ratio of NTZ MIC to compound MIC for Mycobacterium tuberculosis H37Rv; format: functional
[2] = Selectivity index, ratio of CC50 african green monkey Vero cells to MIC for Mycobacterium tuberculosis H37Rv; format: functional
[3] = Cytotoxicity against african green monkey Vero cells after 72 hrs by resazurin assay; format: cell-based; conditions: chlorocebus sabaeus
[4] = tested on: Mycobacterium tuberculosis; assay: Antimicrobial activity against Mycobacterium tuberculosis H37Rv after 11 days using [14]C labeled palmitic acid as substrate by radiometric Bactec 460TB method; format: functional; conditions: 264 h
[5] = tested on: Mycobacterium tuberculosis; assay: Antimicrobial activity against Mycobacterium tuberculosis H37Rv after 4 weeks by agar dilution assay; format: functional; conditions: 672 h
[6] = tested on: Mycobacterium tuberculosis; assay: Antimicrobial activity against non-replicating Mycobacterium tuberculosis; format: functional
[7] = tested on: Mycobacterium tuberculosis; assay: Antimicrobial activity against replicating Mycobacterium tuberculosis; format: functional

With `COc1ccc(-c2csc(N/N=C3/CCCc4c(OC)cccc43)n2)cc1OC` the “fold change (FC)” value [1] was 3, the Ratio [2] was “>=39” and the CC50 at 72 h [3] was greater than 244 µM. It also gave an MIC [4] of 6.25 µM (≈ 2.56 µg/mL) and an MIC [5] of 6.25 µg/mL (≈ 15.3 µM).
With `COc1cccc2c1CCC/C2=N/Nc1nc(-c2ccc(Cl)cc2Cl)cs1` the “fold change (FC)” value [1] was 2 and the MIC [5] was 12.5 µg/mL (≈ 29.9 µM).
For `COc1cccc2c1CCC/C2=N/Nc1nc(-c2ccc(F)cc2)cs1`, the “fold change (FC)” value [1] was 3, the Ratio [2] was “>=48” and the CC50 at 72 h [3] was greater than 300 µM. For the same compound, the MIC [4] was 6.25 µM (≈ 2.3 µg/mL) and the MIC [5] was 6.25 µg/mL (≈ 17 µM).
For `COc1cccc2c1CCC/C2=N/Nc1nc(-c2cccc([N+](=O)[O-])c2)cs1`, the “fold change (FC)” value [1] was 2 and the MIC [5] was 12.5 µg/mL (≈ 31.7 µM).
`COc1ccc(-c2csc(N/N=C/c3cn(Cc4ccc(Cl)cc4Cl)c4ccccc34)n2)cc1OC` gave an MIC [5] greater than 12.5 µg/mL.
`Clc1ccc(Cn2cc(/C=N/Nc3nc(-c4ccc(Cl)cc4Cl)cs3)c3ccccc32)c(Cl)c1` showed an MIC [5] of 12.5 µg/mL (≈ 22.9 µM).
`Fc1ccc(-c2csc(N/N=C/c3cn(Cc4ccc(Cl)cc4Cl)c4ccccc34)n2)cc1` showed an MIC [5] greater than 12.5 µg/mL.
For `Fc1ccc(Nc2nc(-c3ccc(F)cc3)cs2)cc1`, the “fold change (FC)” value [1] was 9, the MIC [4] was 12.5 µM (≈ 3.6 µg/mL) and the MIC [5] was 1.8 µg/mL (≈ 6.24 µM).
`COc1ccc(OC)c(Nc2nc(-c3ccc(F)cc3)cs2)c1` showed an MIC [5] greater than 12.5 µg/mL.
`COc1ccc(OC)c(Nc2nc(-c3cccc([N+](=O)[O-])c3)cs2)c1` gave an MIC [5] greater than 12.5 µg/mL.
Compound `COc1ccc(-c2csc(Nc3cc(OC)ccc3OC)n2)cc1` has an MIC [5] greater than 12.5 µg/mL.
`COc1ccc(-c2csc(Nc3ccccc3C(F)(F)F)n2)cc1OC` gave an MIC [5] greater than 12.5 µg/mL.
Work on `Fc1ccc(-c2csc(Nc3ccccc3C(F)(F)F)n2)cc1` yielded an MIC [5] greater than 12.5 µg/mL.
In the case of `O=[N+]([O-])c1cccc(-c2csc(Nc3ccccc3C(F)(F)F)n2)c1`, the MIC [5] is reported as greater than 12.5 µg/mL.
Compound `COc1ccc(-c2csc(Nc3ccccc3C(F)(F)F)n2)cc1` has an MIC [5] greater than 12.5 µg/mL.
In the case of `NNC(=O)c1ccncc1` [ISONIAZID], the MIC [5] is reported as less than 1 µg/mL.
With `CC(=O)Oc1ccccc1C(=O)Nc1ncc([N+](=O)[O-])s1` [NITAZOXANIDE] the MIC [6] was 52.1 µM (≈ 16 µg/mL) and the MIC [7] was 52.1 µM (≈ 16 µg/mL).
`CN[C@@H]1[C@H](O[C@H]2[C@H](O[C@H]3[C@H](O)[C@@H](O)[C@H](N=C(N)N)[C@@H](O)[C@@H]3N=C(N)N)O[C@@H](C)[C@]2(O)C=O)O[C@@H](CO)[C@H](O)[C@H]1O` [STREPTOMYCIN] showed an MIC [4] of 6 µM (≈ 3.49 µg/mL).
`O=C(Nc1ncc([N+](=O)[O-])s1)c1ccccc1O` [TIZOXANIDE] gave an MIC [6] of 60.4 µM (≈ 16 µg/mL) and an MIC [7] of 60.4 µM (≈ 16 µg/mL).
